For one molecule, Km results are on record in PMC7386655, “Spontaneous mutations that confer resistance to 2-deoxyglucose act through Hxk2 and Snf1 pathways to regulate gene expression and HXT endocytosis” (PLoS Genetics, 2020).

SMILES strings stand for the structures.

For orientation: Km means the substrate concentration at which the rate is half of its maximum.

This test has as its target T1, Hxk2 (Saccharomyces cerevisiae, UniProt P04807).
T1 construct: expressed from low-copy plasmid in hxk1Δ hxk2Δ glk1Δ yeast; whole cell extract; probably C-terminal 3xV5 tag
T1 sequence (P04807 2-486): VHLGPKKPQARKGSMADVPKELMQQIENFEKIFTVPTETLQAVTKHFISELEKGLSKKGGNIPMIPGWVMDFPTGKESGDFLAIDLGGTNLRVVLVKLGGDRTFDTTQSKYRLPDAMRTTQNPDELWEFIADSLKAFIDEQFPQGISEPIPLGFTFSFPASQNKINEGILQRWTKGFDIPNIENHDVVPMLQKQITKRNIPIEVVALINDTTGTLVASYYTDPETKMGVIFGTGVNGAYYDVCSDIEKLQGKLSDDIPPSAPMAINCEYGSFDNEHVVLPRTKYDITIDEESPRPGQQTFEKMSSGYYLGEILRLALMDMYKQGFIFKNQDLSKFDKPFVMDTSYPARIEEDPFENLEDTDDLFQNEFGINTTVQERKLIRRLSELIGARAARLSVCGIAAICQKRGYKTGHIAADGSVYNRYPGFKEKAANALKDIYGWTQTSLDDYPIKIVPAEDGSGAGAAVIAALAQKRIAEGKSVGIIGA
The experiment in a line: G6PDH-coupled NADPH absorbance at […] nm, double reciprocal plot. In kind it is biochemical. The note with it: read-out: Km Glucose; 1 mM ATP, 10 mM MgCl2, pH 7.4; whole cell extract.

`OC[C@H]1OC(O)[C@H](O)[C@@H](O)[C@@H]1O` (stereo partly shown) [glucose]: the Km was 190 µM.
